Assay results as given in patent US9120812B2, “Pyrimidooxazocine derivatives as mTOR-inhibitors” (SANOFI, priority 2012, dated 2015).
Like-named read-outs stand apart in the source and are kept apart here.

Experiments:
[1] = target: mTOR (human recombinant aa mTOR 1360-2549) (Homo sapiens (Human), UniProt P42345); experiment: mTOR enzymatic test by TR-FRET (phosphorylation of GFP-4EBP1); format: biochemical
Method in brief: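 TR-FRET detection of GFP-4EBP1 phosphorylation by a terbium-labelled anti-phospho-Thr46 antibody. Kinase reaction ran 30 min at room temperature, was quenched with EDTA (10 mM final) plus Tb-antibody (2 nM final) and left 60 min. Emission at 520 and 490 nm after 340 nm excitation, reported as the 520/490 ratio.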

PI3Kα (p110α/p85α) = PI3Kα (p110α/p85α) (Homo sapiens (Human), UniProt P42336); experiment: PI3Kα enzymatic test by measuring the consumption of ATP; format: biochemical
PI3Kα (p110α/p85α), sequence (P42336 whole entry): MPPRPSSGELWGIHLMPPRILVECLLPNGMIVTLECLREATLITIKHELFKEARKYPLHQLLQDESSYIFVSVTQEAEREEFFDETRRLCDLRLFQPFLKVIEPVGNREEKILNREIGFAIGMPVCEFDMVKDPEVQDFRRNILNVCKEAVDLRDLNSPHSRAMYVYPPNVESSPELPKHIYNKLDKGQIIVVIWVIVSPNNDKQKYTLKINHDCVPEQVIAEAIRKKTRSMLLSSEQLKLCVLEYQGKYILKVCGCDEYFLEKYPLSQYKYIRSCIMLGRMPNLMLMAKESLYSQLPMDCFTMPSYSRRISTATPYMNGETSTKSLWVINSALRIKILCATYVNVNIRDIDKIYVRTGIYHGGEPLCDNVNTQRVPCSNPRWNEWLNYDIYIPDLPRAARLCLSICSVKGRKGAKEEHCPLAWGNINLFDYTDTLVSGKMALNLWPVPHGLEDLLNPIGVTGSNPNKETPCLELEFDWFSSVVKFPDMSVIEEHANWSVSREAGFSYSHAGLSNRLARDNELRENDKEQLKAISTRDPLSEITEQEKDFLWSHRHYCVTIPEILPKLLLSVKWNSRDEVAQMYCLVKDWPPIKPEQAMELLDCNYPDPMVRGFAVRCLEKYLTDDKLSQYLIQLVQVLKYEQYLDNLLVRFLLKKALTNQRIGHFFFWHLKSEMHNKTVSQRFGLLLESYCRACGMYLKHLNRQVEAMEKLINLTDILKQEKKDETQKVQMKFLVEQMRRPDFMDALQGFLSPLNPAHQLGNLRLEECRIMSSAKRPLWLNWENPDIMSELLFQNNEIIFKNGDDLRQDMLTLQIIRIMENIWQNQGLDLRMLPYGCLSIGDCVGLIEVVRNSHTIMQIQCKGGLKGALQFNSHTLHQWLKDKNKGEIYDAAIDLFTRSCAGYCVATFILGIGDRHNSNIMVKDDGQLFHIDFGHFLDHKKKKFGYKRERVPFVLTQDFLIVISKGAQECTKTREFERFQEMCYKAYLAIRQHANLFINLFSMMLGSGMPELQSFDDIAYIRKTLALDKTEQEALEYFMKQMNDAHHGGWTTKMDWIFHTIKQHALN
PI3Kα (p110α/p85α), sequence (P27986 whole entry partner): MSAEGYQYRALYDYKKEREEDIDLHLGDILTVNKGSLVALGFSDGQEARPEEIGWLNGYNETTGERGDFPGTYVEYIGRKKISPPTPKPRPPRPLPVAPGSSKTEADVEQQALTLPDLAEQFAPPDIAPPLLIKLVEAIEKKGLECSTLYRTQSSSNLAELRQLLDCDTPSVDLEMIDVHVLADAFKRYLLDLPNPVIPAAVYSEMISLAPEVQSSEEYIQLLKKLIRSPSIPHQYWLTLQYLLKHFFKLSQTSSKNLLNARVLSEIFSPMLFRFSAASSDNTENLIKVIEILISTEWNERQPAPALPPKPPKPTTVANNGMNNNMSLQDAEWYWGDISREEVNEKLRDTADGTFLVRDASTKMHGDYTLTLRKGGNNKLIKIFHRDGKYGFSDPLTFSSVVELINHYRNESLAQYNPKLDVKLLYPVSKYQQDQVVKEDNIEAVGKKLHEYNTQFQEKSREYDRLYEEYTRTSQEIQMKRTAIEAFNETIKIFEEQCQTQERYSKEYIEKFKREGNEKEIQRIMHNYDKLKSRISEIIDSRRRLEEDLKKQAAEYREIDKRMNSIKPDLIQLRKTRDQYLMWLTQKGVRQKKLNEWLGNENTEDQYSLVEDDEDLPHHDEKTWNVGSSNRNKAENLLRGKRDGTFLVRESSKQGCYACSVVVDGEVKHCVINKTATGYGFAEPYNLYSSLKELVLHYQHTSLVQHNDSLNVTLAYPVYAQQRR
Method in brief: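 p110α/p85α (1.7 μg/ml) with 50 μM PIP2 and 2 μM ATP in pH 7.5 Tris buffer with EGTA, MgCl2, Chaps, DTT; reaction 90 min. Remaining ATP measured by luciferin/luciferase luminescence; IC50 from threefold serial dilutions spanning at least 10 000-fold.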

U87MG tumour cells = experiment: Test of in vitro proliferation of U87MG tumour cells; format: cell-based; settings: U87MG cells, 72 hours, read-out: U87 Cell Proliferation IC50
Method: Model 4: Test of in vitro Proliferation of U87MG Tumour Cells.
The cell growth is determined with the reagent CellTiter 96 AQueous One Solution Cell Proliferation Assay from Promega (Cat. No. G3581).

[2] = Homo sapiens, U-87 MG, read-out: U87 Akt-pS473 % Inhibition or IC50, nM (IC50), U87MG cells

mTOR (human recombinant aa mTOR 1360-2549), sequence (P42345 1360-2549): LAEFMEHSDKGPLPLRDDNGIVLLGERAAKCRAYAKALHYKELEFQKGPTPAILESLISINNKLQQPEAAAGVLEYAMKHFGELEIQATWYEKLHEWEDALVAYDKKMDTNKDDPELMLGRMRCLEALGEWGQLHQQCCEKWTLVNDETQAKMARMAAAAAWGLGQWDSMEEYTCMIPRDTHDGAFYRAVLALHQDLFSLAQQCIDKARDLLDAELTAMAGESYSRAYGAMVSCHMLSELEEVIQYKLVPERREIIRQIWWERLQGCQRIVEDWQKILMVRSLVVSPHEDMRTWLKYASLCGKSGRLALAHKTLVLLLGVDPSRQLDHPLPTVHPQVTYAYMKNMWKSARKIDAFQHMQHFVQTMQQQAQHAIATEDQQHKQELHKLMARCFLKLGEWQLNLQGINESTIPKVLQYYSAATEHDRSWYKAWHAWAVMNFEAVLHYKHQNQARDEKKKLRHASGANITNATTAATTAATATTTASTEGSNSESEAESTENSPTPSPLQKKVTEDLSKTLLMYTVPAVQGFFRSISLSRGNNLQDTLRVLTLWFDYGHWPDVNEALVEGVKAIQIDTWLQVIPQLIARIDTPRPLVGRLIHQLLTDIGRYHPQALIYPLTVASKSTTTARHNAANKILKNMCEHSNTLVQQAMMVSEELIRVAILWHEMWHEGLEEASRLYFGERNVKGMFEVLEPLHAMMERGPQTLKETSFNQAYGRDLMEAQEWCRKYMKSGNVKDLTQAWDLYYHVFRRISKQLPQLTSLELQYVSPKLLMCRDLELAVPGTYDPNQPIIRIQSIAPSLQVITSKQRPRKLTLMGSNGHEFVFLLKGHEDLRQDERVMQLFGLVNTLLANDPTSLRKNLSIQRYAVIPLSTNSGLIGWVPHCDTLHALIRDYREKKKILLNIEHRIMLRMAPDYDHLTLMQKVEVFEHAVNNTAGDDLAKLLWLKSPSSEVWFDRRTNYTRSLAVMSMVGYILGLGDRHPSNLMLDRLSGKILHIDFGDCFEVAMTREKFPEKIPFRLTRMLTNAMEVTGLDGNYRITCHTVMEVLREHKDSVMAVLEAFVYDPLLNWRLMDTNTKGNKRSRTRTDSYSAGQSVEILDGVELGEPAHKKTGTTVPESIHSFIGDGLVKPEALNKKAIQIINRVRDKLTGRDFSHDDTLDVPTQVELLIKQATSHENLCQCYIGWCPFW
Method for Akt-pS473 in U87MG cells: Model 3: Cellular Test of Phosphorylation of the Epitope S473 of the Akt Protein on the U87MG Line Via an ELISA Test
An electrochemiluminescence signal is generated by a ruthenium-labelled anti-rabbit antibody.
After culturing for 16-20 hours (the cells are at 100% of confluence) at 37° C. under 5% CO2, 1 μl of the chemical compounds in 100% DMSO (1% DMSO final concentration on the cells) is added. The cells are incubated with the compounds for 3 hours at 37° C. under 5% CO2.
The free sites are blocked with 150 μl/well of a buffer of 50 mM Tris pH 7.5, 0.15 M NaCl, 0.02% Tween 20, 3% BSA with stirring at 450 rpm for 1 hour at room temperature, followed by a step of washing with 3×300 μl of a buffer of 50 mM Tris pH 7.5, 0.15 M NaCl, 0.02% Tween 20.
15 μl of cell lysate are mixed with 15 μl of a 50 mM buffer of Tris pH 7.5, 0.15 M NaCl, 0.02% Tween 20, 1% BSA in a precoated ELISA plate (see above), and incubated for 1 hour at room temperature with stirring, followed by a step of washing with 3×300 μl of a buffer of 50 mM Tris pH 7.5, 0.15 M NaCl, 0.02% Tween 20. The pS473 epitope of Akt is detected with a rabbit polyclonal antibody (Cell Signaling, SC9271), diluted 100-fold in 50 mM Tris pH 7.5, 0.15 M NaCl, 0.02% Tween 20, 1% BSA, 25 μl/well (incubation for 1 hour at room temperature with stirring at 450 rpm).
After washing (see above), revelation is performed with a ruthenium-labelled anti-rabbit antibody (MSD R32AB1), diluted 3000-fold in a 50 mM buffer of Tris pH 7.5, 0.15 M NaCl, 0.02% Tween 20, 1% BSA, 25 μl/well, followed by incubation for 1 hour at room temperature with stirring at 450 rpm, and the plates are covered with aluminium.
After a further washing step, the plates are emptied and 150 μl of MSD Read Buffer T diluted fourfold with water are added. The electrochemiluminescence is measured on the MSD Sector Imager 6000.

SMILES | IC50 [1] [nM] | PI3Ka IC50 (PI3Kα (p110α/p85α)) [nM] | IC50 (Akt-pS473 in U87MG cells; [2]) [nM] | IC50 (U87MG tumour cells; Homo sapiens, U-87 MG, 72 h) [nM] | IC50 (Akt-pS473 in U87MG cells; read-out: U87 Akt-pS473 % Inhibition or IC50, nM (IC50), U87MG cells) [nM] | IC50 (U87MG tumour cells) [nM]
CCN1CC(C)(C)Oc2nc(N3CC4CCC(C3)O4)nc(-c3ccc(NC(=O)Nc4cnc(N(C)C)cn4)c(F)c3)c2C1=O [Example 234, 1-(5-Dimethylaminopyrazin-2-yl)-3-{4-[6-ethyl-8,8-dimethyl-2-(8-oxa-3-azabicyclo[3.2.1]oct-3-yl)-5-oxo-5,6,7,8-tetrahydro-9-oxa-1,3,6-triazabenzocyclohepten-4-yl]-2-fluorophenyl}urea] | 67 | >10000 | 118 | 2290 | – | –
CCN1CC(C)(C)Oc2nc(N3CC4CCC(C3)O4)nc(-c3ccc(NC(=O)Nc4ccc(N5CCN(S(C)(=O)=O)CC5)cc4)c(F)c3)c2C1=O [Example 235, 1-{4-[6-Ethyl-8,8-dimethyl-2-(8-oxa-3-azabicyclo[3.2.1]oct-3-yl)-5-oxo-5,6,7,8-tetrahydro-9-oxa-1,3,6-triazabenzocyclohepten-4-yl]-2-fluorophenyl}-3-[4-(4-methanesulfonylpiperazin-1-yl)phenyl]urea] | 89 | >7200 | 10 | 29 | – | –
CCN1CC(C)(C)Oc2nc(N3CC4CCC(C3)O4)nc(-c3ccc(NC(=O)Nc4ccc(N5CCN(C(=O)OC)CC5)cc4)c(F)c3)c2C1=O [Example 236, 4-[4-(3-{4-[6-Ethyl-8,8-dimethyl-2-(8-oxa-3-azabicyclo[3.2.1]oct-3-yl)-5-oxo-5,6,7,8-tetrahydro-9-oxa-1,3,6-triazabenzocyclohepten-4-yl]-2-fluorophenyl}ureido)phenyl]piperazine-1-carboxylic acid methyl ester] | 112 | >7200 | 20 | 29 | – | –
CCN1CC(C)(C)Oc2nc(N3CC4CCC(C3)O4)nc(-c3ccc(NC(=O)Nc4ccc(N5CCS(=O)(=O)CC5)cc4)c(F)c3)c2C1=O [Example 237, 1-[4-(1,1-Dioxo-1λ6-thiomorpholin-4-yl)phenyl]-3-{4-[6-ethyl-8,8-dimethyl-2-(8-oxa-3-azabicyclo[3.2.1]oct-3-yl)-5-oxo-5,6,7,8-tetrahydro-9-oxa-1,3,6-triazabenzocyclohepten-4-yl]-2-fluorophenyl}urea] | 39 | >7200 | 80 | 49 | – | –
C[C@@H](CO)OC(=O)Nc1ccc(-c2nc(N3CC4CCC(C3)O4)nc3c2C(=O)N(C)CC(C)(C)O3)cc1 [Example 238, {4-[6,8,8-Trimethyl-2-(8-oxa-3-azabicyclo[3.2.1]oct-3-yl)-5-oxo-5,6,7,8-tetrahydro-9-oxa-1,3,6-triazabenzocyclohepten-4-yl]phenyl}carbamic acid (S)-2-hydroxy-1-methylethyl ester] | 678 | >10000 | > 1000 | 1700 | – | –
CCN1CC(C)(C)Oc2nc(N3CC4CCC(C3)O4)nc(-c3ccc(NC(=O)Nc4ccc(OC)nc4)c(F)c3)c2C1=O [Example 240, 1-{4-[6-Ethyl-8,8-dimethyl-2-(8-oxa-3-azabicyclo[3.2.1]oct-3-yl)-5-oxo-5,6,7,8-tetrahydro-9-oxa-1,3,6-triazabenzocyclohepten-4-yl]-2-fluorophenyl}-3-(6-methoxypyridin-3-yl)urea] | 61 | >10000 | – | – | 29 | 75
CCN1CC(C)(C)Oc2nc(N3C4CCC3COC4)nc(-c3ccc(NC(=O)Nc4cc(C)nc(C)c4)c(F)c3)c2C1=O [Example 241, 1-(2,6-Dimethylpyridin-4-yl)-3-{4-[6-ethyl-8,8-dimethyl-2-(3-oxa-8-azabicyclo[3.2.1]oct-8-yl)-5-oxo-5,6,7,8-tetrahydro-9-oxa-1,3,6-triazabenzocyclohepten-4-yl]-2-fluorophenyl}urea] | 165 | >10000 | 43 | 59 | – | –
CCN1CC(C)(C)Oc2nc(N3CCOC[C@@H]3C)nc(-c3ccc(NC(=O)Nc4cc(OC)ccn4)cc3F)c2C1=O [Example 242, 1-{4-[6-Ethyl-8,8-dimethyl-2-((S)-3-methylmorpholin-4-yl)-5-oxo-5,6,7,8-tetrahydro-9-oxa-1,3,6-triazabenzocyclohepten-4-yl]-3-fluorophenyl}-3-(4-methoxypyridin-2-yl)urea] | 89 | >10000 | 770 | 2300 | – | –
CCN1CC(C)(C)Oc2nc(N3C4CCC3COC4)nc(-c3ccc(NC(=O)OCCO)cc3F)c2C1=O [Example 243, {4-[6-Ethyl-8,8-dimethyl-2-(3-oxa-8-azabicyclo[3.2.1]oct-8-yl)-5-oxo-5,6,7,8-tetrahydro-9-oxa-1,3,6-triazabenzocyclohepten-4-yl]-3-fluorophenyl}carbamic acid 2-hydroxyethyl ester] | 63 | 3870 | 160 | 610 | – | –
CCN1CC(C)(C)Oc2nc(N3CC4CCC(C3)O4)nc(-c3ccc(NC(=O)OCCO)cc3F)c2C1=O [Example 246, {4-[6-Ethyl-8,8-dimethyl-2-(8-oxa-3-azabicyclo[3.2.1]oct-3-yl)-5-oxo-5,6,7,8-tetrahydro-9-oxa-1,3,6-triazabenzocyclohepten-4-yl]-3-fluorophenyl}carbamic acid 2-hydroxyethyl ester] | 82 | >10000 | 240 | 1600 | – | –
CCN1CC(C)(C)Oc2nc(N3CC4CCC(C3)O4)nc(-c3ccc(NC(=O)Nc4ccc(C#N)nc4)c(F)c3)c2C1=O [Example 247, 1-(6-Cyanopyridin-3-yl)-3-{4-[6-ethyl-8,8-dimethyl-2-(8-oxa-3-azabicyclo[3.2.1]oct-3-yl)-5-oxo-5,6,7,8-tetrahydro-9-oxa-1,3,6-triazabenzocyclohepten-4-yl]-2-fluorophenyl}urea] | 26 | 7200 | 8 | 62 | – | –
CC[C@H]1COCCN1c1ccc(NC(=O)Nc2ccc(-c3nc(N4CCOC[C@@H]4C)nc4c3C(=O)N(CC)CC(C)(C)O4)cc2F)cn1 [Example 248, 1-{4-[6-Ethyl-8,8-dimethyl-2-((S)-3-methylmorpholin-4-yl)-5-oxo-5,6,7,8-tetrahydro-9-oxa-1,3,6-triazabenzocyclohepten-4-yl]-2-fluorophenyl}-3-[6-((S)-3-ethylmorpholin-4-yl)pyridin-3-yl]urea] | 68 | >10000 | 29 | 96 | – | –
CC[C@H]1COCCN1c1ccc(NC(=O)Nc2ccc(-c3nc(N4C5CCC4COC5)nc4c3C(=O)N(CC)CC(C)(C)O4)cc2F)cn1 [Example 249, 1-{4-[6-Ethyl-8,8-dimethyl-2-(3-oxa-8-azabicyclo[3.2.1]oct-8-yl)-5-oxo-5,6,7,8-tetrahydro-9-oxa-1,3,6-triazabenzocyclohepten-4-yl]-2-fluorophenyl}-3-[6-((S)-3-ethylmorpholin-4-yl)pyridin-3-yl]urea] | 365 | >10000 | 27 | 29 | – | –
CCN1CC(C)(C)Oc2nc(N3CC4CCC(C3)O4)nc(-c3ccc(NC(=O)Nc4ccc(N5CCOCC5)cn4)cc3)c2C1=O [Example 250, 1-{4-[6-Ethyl-8,8-dimethyl-2-(8-oxa-3-azabicyclo[3.2.1]oct-3-yl)-5-oxo-5,6,7,8-tetrahydro-9-oxa-1,3,6-triazabenzocyclohepten-4-yl]phenyl}-3-(5-morpholin-4-ylpyridin-2-yl)urea] | 36 | >10000 | 38 | 100 | – | –
